Results: US12133936B2, “Surgical system and methods of use” (priority 2021, dated 2024)

Key:
myofibroblast formation = details: Ajmal et al. (2003); cited from earlier work
fibrinolysis = experiment: prevention / reversal of fibrinolysis; details: one tenth of the doses used in the non-GLP acute porcine study
Source text: (§1) However, in some embodiments, however, higher doses of tranexamic acid are used for topical applications to account for tranexamic acid being widely distributed throughout the extracellular and intracellular compartments when given preoperatively.

[1] = in vivo
Source text: as §1

| SMILES | myofibroblast formation (myofibroblast formation) | reversing fibrinolysis (fibrinolysis) | time to reach plasma concentrations [1] |
| --- | --- | --- | --- |
| O=S(=O)([O-])CCS.[Na+] [MESNA, sodium 2-mercaptoethane sulfonate] | diminish myofibroblast formation | – | – |
| NC[C@H]1CC[C@H](C(=O)O)CC1 [tranexamic acid, trans-4-(aminomethyl)cyclohexanecarboxylic acid] | – | effective in reversing fibrinolysis | 5 to 15 min |
